The values that follow come from paper PMC11556746, “Anchorage of bacterial effector at plasma membrane via selective phosphatidic acid binding to modulate host cell signaling” (PLOS Pathogens, 2024).

The structures appear in SMILES notation.

The test addresses T1, BepE-BID1 (Bartonella henselae, UniProt A0A0R4J6H0).
T1 construct: gene BH13420; first BID domain (BID1) of BepE, His-tagged, expressed in E. coli, Ni-NTA
As to the kind of experiment: metasurface plasmon resonance (SPR), immobilised protein. The test is classed as binding. As to conditions: lipid presented in liposomes (PC:POPA, 90% PC and 10% POPA); HBS-ET buffer. For orientation: SPR reads the build-up and loss of mass on a sensor chip optically.

T1 sequence (A0A0R4J6H0 entry or part of it): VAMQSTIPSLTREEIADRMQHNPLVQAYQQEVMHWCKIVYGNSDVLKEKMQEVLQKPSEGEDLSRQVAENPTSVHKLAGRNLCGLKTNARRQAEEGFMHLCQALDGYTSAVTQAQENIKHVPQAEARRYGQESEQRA

As for `CCCCCCCC/C=C\CCCCCCCC(=O)O[C@H](COC(=O)CCCCCCCCCCCCCCC)COP(=O)(O)O` [POPA], the Kd – broadly, the concentration at which binding is half-saturated – was roughly 349 nM.
